What was measured:
[1] = system: barnyardgrass; test: Test B pre-/postemergence herbicide test; format: in vivo, Echinochloa crus-galli; conditions: for Plant response rating (0 to 100 scale), Barnyardgrass: 0 is no effect, preemergence
Summary of the method: (§1)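 Visual rating, 0 (no effect) to 100 (complete control), versus untreated controls after 13–15 d in greenhouse. Pre- and postemergence applications (postemergence plants 2–18 cm, 1–4 leaves); flooded paddy arm at 2-leaf stage. Compounds in non-phytotoxic solvent plus surfactant.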

[2] = system: Surinam grass; test: Test B pre-/postemergence herbicide test; format: in vivo, Urochloa decumbens
Summary of the method: (§2)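 Response was scored visually 13 to 15 days after treatment against untreated greenhouse controls, 0 meaning no effect and 100 complete control. Formulations (solvent mixture plus surfactant) went onto soil after planting, onto foliage of 1- to 4-leaf plants, and onto 2-leaf plants in a flooded paddy set including rice and barnyardgrass.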

[3] = system: cocklebur; test: Test B pre-/postemergence herbicide test; format: in vivo, Xanthium strumarium; conditions: for Plant response rating (0 to 100 scale), Cocklebur: 0 is no effect, preemergence
Summary of the method: as §1

[4] = system: corn; test: Test B pre-/postemergence herbicide test; format: in vivo, Zea mays; conditions: for Plant response rating (0 to 100 scale), Corn: 0 is no effect, preemergence
Summary of the method: as §2

[5] = system: large crabgrass; test: Test B pre-/postemergence herbicide test; format: in vivo, Digitaria sanguinalis; conditions: for Plant response rating (0 to 100 scale), Crabgrass, Large: 0 is no effect, preemergence
Summary of the method: as §2

[6] = system: giant foxtail; test: Test B pre-/postemergence herbicide test; format: in vivo, Setaria faberi
Summary of the method: as §2

[7] = system: lambsquarters; test: Test B pre-/postemergence herbicide test; format: in vivo, Chenopodium album
Summary of the method: as §2

[8] = system: morningglory; test: Test B pre-/postemergence herbicide test; format: in vivo, Ipomoea coccinea
Summary of the method: as §1

[9] = system: pigweed; test: Test B pre-/postemergence herbicide test; format: in vivo, Amaranthus retroflexus
Summary of the method: as §2

[10] = system: velvetleaf; test: Test B pre-/postemergence herbicide test; format: in vivo, Abutilon theophrasti
Summary of the method: as §2

[11] = system: blackgrass; test: Test B postemergence herbicide test; format: in vivo, Alopecurus myosuroides
Summary of the method: (§3)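 Visual ratings, 0 (no effect) to 100 (complete control), made versus controls after 13–15 d greenhouse. Paddy plants treated at 2-leaf stage; postemergence plants at 1- to 4-leaf stage, 2–18 cm tall.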

[12] = system: wheat; test: Test B postemergence herbicide test; format: in vivo, Triticum aestivum; design: key to Wheat plant response rating: 0 = no effect, 100 = complete control
Summary of the method: (§4)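 Treated at 2-leaf (paddy) or 1–4-leaf, 2–18 cm (postemergence); greenhouse 13–15 d; visual score vs control, 0 none to 100 complete control; dash = not tested.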

[13] = system: wild oat; test: Test B postemergence herbicide test; format: in vivo, Avena fatua
Summary of the method: as §4

[14] = system: rice; test: Test B flooded paddy test; format: in vivo, Oryza sativa; conditions: 1000 g ai/ha, scale 0 to 100 (0 no effect, 100 complete control)
Summary of the method: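 Postemergence plants were sprayed with formulated test chemicals at 2 to 18 cm height (1- to 4-leaf stage); paddy species were grown to the 2-leaf stage. After 13 to 15 days in a greenhouse, injury was rated visually against untreated controls on a 0–100 scale (0 = no effect, 100 = complete control).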

[15] = system: small flower umbrella sedge; test: Test B flooded paddy test; format: in vivo, Cyperus difformis; conditions: 1000 g ai/ha, scale 0 to 100 (0 no effect, 100 complete control)
Summary of the method: as §3

[16] = system: ducksalad; test: Test B flooded paddy test; format: in vivo, Heteranthera limosa; conditions: 1000 g ai/ha, scale 0 to 100 (0 no effect, 100 complete control)
Summary of the method: as §3

[17] = system: barnyardgrass; test: Test B flooded paddy test; format: in vivo, Echinochloa crus-galli; conditions: 1000 g ai/ha, scale 0 to 100 (0 no effect, 100 complete control)
Summary of the method: as §3

[18] = Postemergence, 125 g ai/ha, scale 0 (no effect) to 100 (complete control)
[19] = Postemergence, 500 g ai/ha, visual rating after 13 to 15 days, scale 0 (no effect) to 100 (complete control)
[20] = Preemergence, 500 g ai/ha, scale 0 to 100
[21] = preemergence, 125 g ai/ha, 0 to 100 scale, 0 is no effect, 100 is complete control
[22] = 125 g ai/ha, 100 is complete control
[23] = Postemergence, 500 g ai/ha, scale 0 (no effect) to 100 (complete control)
[24] = 125 g ai/ha, 0 is no effect, 100 is complete control, preemergence
[25] = postemergence, 125 g ai/ha, scale 0 to 100
[26] = 500 g ai/ha, scale 0 to 100, 0 no effect, 100 complete control, preemergence
[27] = 125 g ai/ha, visual rating, scale 0 (no effect) to 100 (complete control), postemergence
[28] = postemergence, 500 g ai/ha, scale 0 to 100, 0 is no effect, 100 is complete control
[29] = Postemergence, 250 g ai/ha, scale 0 (no effect) to 100 (complete control)
[30] = postemergence, 62 g ai/ha, scale 0 to 100

Compound: C=Cn1nc(C(C)(C)C)cc1C(=O)Nc1cccc(C(=O)NCC(F)(F)F)c1 [Compound 37]
- Barnyardgrass plant response rating [1, 18]: 20
- Plant response rating, Barnyardgrass [1, 19]: 20
- Barnyardgrass plant response rating [1, 20]: 60
- Plant response rating, Surinam Grass [2, 19]: 20
- Surinam Grass plant response rating [2, 20]: 40
- Plant response rating, Surinam Grass [2, 21]: 10
- Cocklebur plant response rating [3, 18]: 60
- Plant response rating, Cocklebur [3, 19]: 80
- Cocklebur plant response rating [3, 20]: 0
- Corn plant response rating [4, 20]: 10
- Crabgrass, Large plant response rating [5, 18]: 10
- Plant response rating, Crabgrass, Large [5, 19]: 20
- Crabgrass, Large plant response rating [5, 20]: 90
- Foxtail, Giant plant response rating [6, 18]: 20
- Plant response rating, Foxtail, Giant [6, 19]: 20
- Foxtail, Giant plant response rating [6, 20]: 60
- Plant response rating, Foxtail, Giant [6, 21]: 20
- Lambsquarters plant response rating [7, 18]: 80
- Plant response rating, Lambsquarters [7, 19]: 90
- Lambsquarters plant response rating [7, 20]: 100
- Plant response rating, Lambsquarters [7, 21]: 10
- Morningglory plant response rating [8, 20]: 0
- Plant response rating, Morningglory [8, 21]: 0
- Plant response rating, Pigweed [9, 19]: 90
- Pigweed plant response rating [9, 20]: 100
- Plant response rating, Pigweed [9, 21]: 80
- Plant response rating, Velvetleaf [10, 19]: 40
- Velvetleaf plant response rating [10, 20]: 20
- Plant response rating, Velvetleaf [10, 21]: 20
- Blackgrass plant response rating [11, 18]: 10
- Plant response rating, Blackgrass [11, 19]: 10
- Plant response rating, Wheat [12, 19]: 20
- Oat, Wild plant response rating [13, 18]: 10
- Plant response rating, Oat, Wild [13, 19]: 20
- Rice plant response rating ([14]; visual rating, 13 to 15 days): 50
- Sedge, Umbrella plant response rating ([15]; visual rating, 13 to 15 days): 90
- Ducksalad plant response rating ([16]; visual rating, 13 to 15 days): 60
- Barnyardgrass plant response rating ([17]; visual rating, 13 to 15 days): 30

Compound: Cc1nn(C(C)(C)C)nc1C(=O)Nc1cc(C(=O)N(C)C)ccn1 [Compound 423]
- Plant response rating (0 to 100 scale), Barnyardgrass [1, 22]: 90
- Barnyardgrass plant response rating [1, 18]: 10
- Barnyardgrass plant response rating [1, 23]: 30
- Plant response rating (0 to 100 scale), Surinam Grass [2, 24]: 90
- Surinam Grass plant response rating [2, 23]: 30
- Surinam Grass plant response rating [2, 25]: 10
- Plant response rating (0 to 100 scale), Cocklebur [3, 22]: 20
- Cocklebur plant response rating [3, 23]: 30
- Cocklebur plant response rating [3, 25]: 10
- Plant response rating (0 to 100 scale), Corn [4, 22]: 30
- Corn plant response rating [4, 23]: 20
- Corn plant response rating [4, 25]: 10
- Plant response rating (0 to 100 scale), Crabgrass, Large [5, 22]: 100
- Crabgrass, Large plant response rating [5, 23]: 50
- Crabgrass, Large plant response rating [5, 25]: 10
- Plant response rating (0 to 100 scale), Foxtail, Giant [6, 24]: 90
- Foxtail, Giant plant response rating [6, 23]: 30
- Foxtail, Giant plant response rating [6, 25]: 20
- Plant response rating (0 to 100 scale), Lambsquarters [7, 24]: 100
- Lambsquarters plant response rating [7, 23]: 70
- Lambsquarters plant response rating [7, 25]: 50
- Plant response rating (0 to 100 scale), Morningglory [8, 24]: 30
- Morningglory plant response rating [8, 23]: 80
- Morningglory plant response rating [8, 25]: 40
- Plant response rating (0 to 100 scale), Pigweed [9, 24]: 100
- Pigweed plant response rating [9, 23]: 60
- Pigweed plant response rating [9, 25]: 40
- Plant response rating (0 to 100 scale), Velvetleaf [10, 24]: 90
- Velvetleaf plant response rating [10, 23]: 50
- Velvetleaf plant response rating [10, 25]: 40
- Blackgrass plant response rating [11, 23]: 60
- Blackgrass plant response rating [11, 25]: 30
- Wheat plant response rating [12, 26]: 100
- Wheat plant response rating [12, 23]: 0
- Wheat plant response rating [12, 25]: 0
- Oat, Wild plant response rating [13, 23]: 30
- Oat, Wild plant response rating [13, 25]: 0
- Rice plant response rating [14]: 60
- Sedge, Umbrella plant response rating [15]: 70
- Ducksalad plant response rating [16]: 50
- Barnyardgrass plant response rating [17]: 80

Compound: CCc1nn(C(C)(C)C)nc1C(=O)Nc1cccc(C(=O)N2CC=CC2)c1 [Compound 366]
- Plant response rating (0 to 100 scale), Barnyardgrass [1, 22]: 70
- Barnyardgrass plant response rating [1, 27]: 10
- Barnyardgrass plant response rating [1, 28]: 10
- Plant response rating (0 to 100 scale), Surinam Grass [2, 24]: 30
- Surinam Grass plant response rating [2, 27]: 10
- Plant response rating (0 to 100 scale), Cocklebur [3, 22]: 0
- Cocklebur plant response rating [3, 27]: 30
- Cocklebur plant response rating [3, 28]: 50
- Plant response rating (0 to 100 scale), Corn [4, 22]: 40
- Corn plant response rating [4, 27]: 10
- Corn plant response rating [4, 28]: 20
- Plant response rating (0 to 100 scale), Crabgrass, Large [5, 22]: 40
- Crabgrass, Large plant response rating [5, 27]: 10
- Crabgrass, Large plant response rating [5, 28]: 20
- Plant response rating (0 to 100 scale), Foxtail, Giant [6, 24]: 50
- Foxtail, Giant plant response rating [6, 27]: 20
- Foxtail, Giant plant response rating [6, 28]: 40
- Lambsquarters plant response rating [7, 27]: 80
- Plant response rating (0 to 100 scale), Morningglory [8, 24]: 30
- Plant response rating (0 to 100 scale), Pigweed [9, 24]: 70
- Pigweed plant response rating [9, 27]: 50
- Plant response rating (0 to 100 scale), Velvetleaf [10, 24]: 0
- Velvetleaf plant response rating [10, 27]: 10
- Blackgrass plant response rating [11, 27]: 40
- Blackgrass plant response rating [11, 28]: 50
- Wheat plant response rating [12, 27]: 20
- Wheat plant response rating [12, 26]: 90
- Oat, Wild plant response rating [13, 27]: 40
- Rice plant response rating [14]: 70
- Sedge, Umbrella plant response rating [15]: 90
- Ducksalad plant response rating [16]: 100
- Barnyardgrass plant response rating [17]: 80

Compound: CCOC(=O)c1ccc(F)c(NC(=O)c2cc(C(C)C)nn2CC)c1 [Compound 73]
- Barnyardgrass plant response rating [1, 29]: 10
- Barnyardgrass plant response rating [1, 30]: 0
- Surinam Grass plant response rating [2, 29]: 10
- Surinam Grass plant response rating [2, 30]: 10
- Cocklebur plant response rating [3, 29]: 20
- Cocklebur plant response rating [3, 30]: 20
- Corn plant response rating [4, 29]: 30
- Corn plant response rating [4, 30]: 0
- Crabgrass, Large plant response rating [5, 29]: 10
- Crabgrass, Large plant response rating [5, 30]: 0
- Foxtail, Giant plant response rating [6, 29]: 30
- Foxtail, Giant plant response rating [6, 30]: 10
- Lambsquarters plant response rating [7, 29]: 10
- Lambsquarters plant response rating [7, 30]: 0
- Morningglory plant response rating [8, 29]: 10
- Morningglory plant response rating [8, 30]: 10
- Pigweed plant response rating [9, 29]: 20
- Pigweed plant response rating [9, 30]: 10
- Velvetleaf plant response rating [10, 29]: 50
- Velvetleaf plant response rating [10, 30]: 30
- Blackgrass plant response rating [11, 29]: 30
- Blackgrass plant response rating [11, 30]: 30
- Wheat plant response rating ([12]; 250 g ai/ha, scale 0 to 100, 0 no effect, 100 complete control, preemergence): 20
- Wheat plant response rating [12, 29]: 30
- Wheat plant response rating [12, 30]: 20
- Oat, Wild plant response rating [13, 29]: 40
- Oat, Wild plant response rating [13, 30]: 20
- Rice plant response rating ([14]; visual rating, 13 to 15 days): 50
- Sedge, Umbrella plant response rating ([15]; visual rating, 13 to 15 days): 80
- Ducksalad plant response rating ([16]; visual rating, 13 to 15 days): 10
- Barnyardgrass plant response rating ([17]; visual rating, 13 to 15 days): 30

— US20060069132A1, “Azolecarboxamide herbicides” (priority 2004, published 2006)
